Measured values reported in PubChem BioAssay (NCI).
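All cell lines were grown in 96-well plates and treated with compound for 48 hours. The concentration for full growth arrest is given as TGI.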

What was measured:
Assay in all cases: NCI anticancer screen, dose series, 48 h
[1] = test system: 786-0 renal
[2] = test system: A549 NSCLC
[3] = test system: CAKI-1 renal
[4] = test system: CCRF-CEM leukemia
[5] = test system: COLO 205 colon
[6] = test system: DU-145 prostate
[7] = test system: EKVX NSCLC
[8] = test system: HCC-2998 colon
[9] = test system: HCT-15 colon
[10] = test system: HL-60(TB) leukemia
[11] = test system: HOP-62 NSCLC
[12] = test system: HOP-92 NSCLC
[13] = test system: HT29 colon
[14] = test system: IGROV1 ovarian
[15] = test system: K-562 leukemia
[16] = test system: KM12 colon
[17] = test system: LOX IMVI melanoma
[18] = test system: M14 melanoma
[19] = test system: MALME-3M melanoma
[20] = test system: MCF7 breast
[21] = test system: MDA-MB-231 breast
[22] = test system: MDA-MB-435
[23] = test system: MDA-N
[24] = test system: MOLT-4 leukemia
[25] = test system: NCI-H23 lung
[26] = test system: OVCAR-4 ovarian
[27] = test system: OVCAR-8 ovarian
[28] = test system: PC-3 prostate
[29] = test system: RPMI-8226 leukemia
[30] = test system: RXF 393 renal
[31] = test system: SF-268 CNS
[32] = test system: SF-295 CNS
[33] = test system: SK-MEL-28 melanoma
[34] = test system: SK-MEL-5 melanoma
[35] = test system: SK-OV-3 ovarian
[36] = test system: SN12C renal
[37] = test system: SNB-75 CNS
[38] = test system: SR leukemia
[39] = test system: SW-620 colon
[40] = test system: T-47D breast
[41] = test system: TK-10 renal
[42] = test system: UACC-257 melanoma
[43] = test system: UACC-62 melanoma

SMILES: CCOC(=O)N1CCC2C(=C(C)C(C)C3=C2C(=O)c2ccccc2C3=O)C1 (stereo not drawn)
- TGI [1]: > 10 µM
- TGI [2]: > 10 µM
- TGI [3]: > 10 µM
- TGI [4]: > 10 µM
- TGI [5]: > 10 µM
- TGI [6]: > 10 µM
- TGI [7]: > 10 µM
- TGI [8]: > 10 µM
- TGI [9]: > 10 µM
- TGI [10]: 5.15 µM
- TGI [11]: > 10 µM
- TGI [12]: > 10 µM
- TGI [13]: > 10 µM
- TGI [14]: > 10 µM
- TGI [15]: > 10 µM
- TGI [16]: > 10 µM
- TGI [17]: > 10 µM
- TGI [18]: > 10 µM
- TGI [19]: 6.77 µM
- TGI [20]: > 10 µM
- TGI [21]: > 10 µM
- TGI [22]: 4.53 µM
- TGI [23]: > 10 µM
- TGI [24]: > 10 µM
- TGI [25]: > 10 µM
- TGI [26]: > 10 µM
- TGI [27]: > 10 µM
- TGI [28]: > 10 µM
- TGI [29]: > 10 µM
- TGI [30]: > 10 µM
- TGI [31]: > 10 µM
- TGI [32]: > 10 µM
- TGI [33]: > 10 µM
- TGI [34]: 4.27 µM
- TGI [35]: > 10 µM
- TGI [36]: > 10 µM
- TGI [37]: > 10 µM
- TGI [38]: > 10 µM
- TGI [39]: > 10 µM
- TGI [40]: > 10 µM
- TGI [41]: > 10 µM
- TGI [42]: > 10 µM
- TGI [43]: > 10 µM
